How the values were obtained:
[1] = tested on: human lung cancer and breast cancer; conditions: PNAS 2012 109 (24) 9623-9628; cited from earlier work
CD137 = CD137 (Homo sapiens, UniProt Q07011); conditions: several clinical trials, Ascierto et al., 2010; cited from earlier work
immune cells = assay: Click alginate cryogel with cytokines/chemokines placed under the skin, screened for immune cell accumulation; assay type: in vivo; conditions: Cryoclick gels
From the text: FIG. 12 is a series of photographs showing immune cell accumulation using GM-CSF—DC growth/differentiation factor in the device. FIGS. 12-15 show data using Cryoclick gels. Using a click alginate cryogel, a number of cytokines and chemokines were placed under the skin and screened for resulting activity in terms of immune cell accumulation.

[2] = tested on: human embryonic kidney (HEK) toll-like receptor-3 (TLR3) cells; assay: Bioactivity of poly I:C released from CryogelMA on HEK TLR3 cells; assay type: cell-based; conditions: in vitro, supernatants over several days, absorbance
From the text: FIG. 8 is a line graph showing CryogelMA poly I:C release and bioactivity. […] Doing this in the tumor microenvironment stimulates maturation of recruited antigen-presenting cells (APCs) and results in antitumor immunity.

Sequence of CD137 (Q07011 24-255): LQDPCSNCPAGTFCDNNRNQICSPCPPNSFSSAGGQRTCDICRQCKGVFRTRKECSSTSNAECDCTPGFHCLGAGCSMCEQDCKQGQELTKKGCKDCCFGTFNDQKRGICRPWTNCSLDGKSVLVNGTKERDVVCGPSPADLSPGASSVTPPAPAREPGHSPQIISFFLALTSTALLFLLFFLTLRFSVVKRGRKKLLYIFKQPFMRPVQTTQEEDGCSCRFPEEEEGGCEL

CN(CC(=O)N(Cc1ccc(C2CCCCC2)cc1)c1ccc(C(=O)O)c(O)c1)S(=O)(=O)c1c(F)c(F)c(F)c(F)c1F [BP-1-102]
activity against tumors in animals [1]: active

COc1cccc2c1C(=O)c1c(O)c3c(c(O)c1C2=O)C[C@@](O)(C(=O)CO)C[C@@H]3O[C@H]1C[C@H](N)[C@H](O)[C@H](C)O1 [doxorubicin]
cell death at the tumor close to the scaffold border (tumor cells; day 3 after peritumoral injection, cleaved-caspase 3 staining): local cell death is induced
effect on surrounding normal tissue (tumor cells; local delivery from the gels, FIG. 22): much less affected

BMS-66513: anti-CD137 antibody
clinical response (CD137): partial remissions in disease
clinical toxicity (CD137): liver toxicity

CCL20: Chemokine (C-C motif) ligand 20, DC chemokine
immune cell accumulation at gel placed under the skin (immune cells): bright DC staining at gel periphery

IL-15: interleukin-15, T cell/NK cell survival factor
immune cell accumulation at gel placed under the skin (immune cells): accumulation of CD4 and CD8 T cells in the skin

polyinosine-polycytidylic acid [poly I:C]
response of HEK TLR3 cells to supernatants [2]: produce a response measured by absorbance

— US11786457B2, “Peritumoral and intratumoral materials for cancer therapy” (President and Fellows of Harvard College, priority 2015, dated 2023)
